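Tested at 5 concentrations; 48 h exposure; 96-well plates; endpoints linearly interpolated, else capped at highest concentration. The concentration for 50% growth inhibition is given as GI50. Definition used: TGI = concentration required for complete inhibition of growth.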 A value given as a limit tells only on which side of the number the result lay.

Some test systems named below: HCT-15 colon; MCF7 breast; T-47D breast; HS 578T breast; NCI/ADR-RES ovarian; KM12 colon; OVCAR-3 ovarian.
Assay in all cases: growth of human tumour cells (NCI), 48 h

As for `COc1cc2c(c(OC)c1OC)-c1ccc(NCc3ccccc3)c(=O)cc1[C@@H](NC(C)=O)CC2`, the GI50 is 1.09 µM with HCT-15 colon; 0.337 µM in the experiment with MCF7 breast; 0.589 µM with T-47D breast; 0.362 µM in the experiment with HS 578T breast; 18.7 µM in the experiment with NCI/ADR-RES ovarian; 0.374 µM with KM12 colon. In addition, the GI50 in the experiment on OVCAR-3 ovarian is 0.309 µM. For the same compound, the TGI in the experiment on HCT-15 colon was greater than 48.4 µM; with MCF7 breast it was 19.7 µM; in the experiment on T-47D breast it was 41.5 µM; in the experiment with HS 578T breast, 43 µM; in the experiment on NCI/ADR-RES ovarian it was greater than 100 µM; in the experiment with KM12 colon, 19.9 µM. In the experiment with OVCAR-3 ovarian, this compound yielded a TGI of 2.82 µM.

Regarding `ClCc1ccccc1CSc1ncnc2nc[nH]c12`, the GI50 in the experiment on HCT-15 colon is greater than 60 µM; with MCF7 breast it was 53 µM; in the experiment with T-47D breast it was greater than 60 µM; in the experiment on HS 578T breast, greater than 60 µM; in the experiment on NCI/ADR-RES ovarian it was greater than 60 µM; in the experiment with KM12 colon, greater than 60 µM. The GI50 with OVCAR-3 ovarian was greater than 60 µM. In addition, the TGI with HCT-15 colon, in the experiment with MCF7 breast, with T-47D breast, in the experiment on HS 578T breast, in the experiment with NCI/ADR-RES ovarian and in the experiment with KM12 colon was greater than 60 µM in each case. In the experiment with OVCAR-3 ovarian, this compound returned a TGI greater than 60 µM.

For `COc1ccc(CN2CCCC(C(=O)c3ccc(C(F)(F)F)cc3)C2)c(O)c1` (centres undefined), the GI50 is 14.6 µM in the experiment with HCT-15 colon; 18 µM in the experiment with MCF7 breast; 22.1 µM in the experiment on T-47D breast; 24.7 µM with HS 578T breast; 26.7 µM with NCI/ADR-RES ovarian; 30.5 µM in the experiment with KM12 colon. The GI50 in the experiment with OVCAR-3 ovarian is 36.2 µM. The TGI in the experiment with HCT-15 colon was 36 µM; with MCF7 breast, 54.7 µM; with T-47D breast, 80.1 µM; in the experiment with HS 578T breast it was greater than 100 µM; in the experiment with NCI/ADR-RES ovarian, greater than 100 µM; with KM12 colon, 86 µM. Further, the TGI with OVCAR-3 ovarian is greater than 100 µM.

Turning to `CCOC(=O)c1cnc2[nH]ccn2c1=O`, the TGI in the experiment with HCT-15 colon, in the experiment with MCF7 breast, with T-47D breast, in the experiment with HS 578T breast, in the experiment with NCI/ADR-RES ovarian and in the experiment with KM12 colon was greater than 10 µM each time. Moreover, the TGI in the experiment on OVCAR-3 ovarian was greater than 10 µM.

With `CN1CN(c2ccccc2)C2(CCN(CCCC3(c4cccs4)OCCO3)CC2)C1=O`, the TGI in the experiment on HCT-15 colon, in the experiment on MCF7 breast, in the experiment on T-47D breast, with HS 578T breast, in the experiment on NCI/ADR-RES ovarian and in the experiment on KM12 colon was greater than 100 µM in each case. The TGI with OVCAR-3 ovarian was greater than 100 µM.

As to `N#Cc1c(O)c2c(c(O)c1C#N)C(=O)c1ccccc1C2=O`, the GI50 is 2.32 µM in the experiment on HCT-15 colon; 1.46 µM in the experiment on MCF7 breast; 2.71 µM in the experiment with T-47D breast; 1.26 µM in the experiment with HS 578T breast; 2.12 µM in the experiment on NCI/ADR-RES ovarian; 2.59 µM with KM12 colon. Also, in the experiment on OVCAR-3 ovarian, the GI50 is 0.745 µM. For the same compound, the TGI is greater than 28.1 µM in the experiment on HCT-15 colon; 3.76 µM in the experiment on MCF7 breast; 9.2 µM with T-47D breast; 5.87 µM with HS 578T breast; 7.25 µM in the experiment on NCI/ADR-RES ovarian; 12.1 µM in the experiment on KM12 colon. In the experiment with OVCAR-3 ovarian, this compound came in with a TGI of 2.94 µM.

`CCn1c(=O)c2c3cc(O)ccc3oc2c2ccc(O)cc21`: the TGI in the experiment on HCT-15 colon is greater than 100 µM; with MCF7 breast it was greater than 100 µM; in the experiment on T-47D breast it was 36.5 µM; in the experiment with HS 578T breast it was greater than 100 µM; in the experiment on NCI/ADR-RES ovarian, greater than 100 µM; in the experiment with KM12 colon it was greater than 100 µM. The compound further came in with a TGI with OVCAR-3 ovarian greater than 100 µM.

On to `Fc1ccc(-c2nn(-c3ccccc3)cc2-c2nc3ccccc3o2)cc1`, for which the GI50 was 1.83 µM with HCT-15 colon; 0.539 µM in the experiment on MCF7 breast; 37.3 µM in the experiment on T-47D breast; 6.48 µM with HS 578T breast; 3.57 µM in the experiment on NCI/ADR-RES ovarian; 3.25 µM in the experiment with KM12 colon. In addition, the GI50 in the experiment on OVCAR-3 ovarian is 2.87 µM. Also, the TGI in the experiment on HCT-15 colon is 39 µM; in the experiment with MCF7 breast, greater than 100 µM; in the experiment with T-47D breast, greater than 100 µM; in the experiment on HS 578T breast, 66.5 µM; in the experiment on NCI/ADR-RES ovarian it was greater than 100 µM; with KM12 colon, greater than 100 µM. The TGI with OVCAR-3 ovarian was found to be 48.7 µM.

On to `O=C1c2ccccc2-c2c1c1cc3c(cc1c(=O)n2CCCCl)OCO3`, for which the GI50 in the experiment with HCT-15 colon is greater than 100 µM; in the experiment with MCF7 breast it was 17.7 µM; with T-47D breast it was greater than 100 µM; in the experiment with HS 578T breast, greater than 100 µM; with NCI/ADR-RES ovarian it was 24.9 µM; in the experiment with KM12 colon, 24.1 µM. For the same compound, the GI50 in the experiment with OVCAR-3 ovarian is 11.4 µM. Moreover, the TGI in the experiment with HCT-15 colon, with MCF7 breast, in the experiment with T-47D breast, in the experiment on HS 578T breast, with NCI/ADR-RES ovarian and in the experiment with KM12 colon was greater than 100 µM in each case. The same compound came in with a TGI with OVCAR-3 ovarian of 32 µM.

As for `Cn1c(-c2nonc2N)nc2cnccc21`, the GI50 with HCT-15 colon is greater than 25 µM; in the experiment on MCF7 breast, greater than 25 µM; in the experiment with T-47D breast, greater than 25 µM; with HS 578T breast, 14.9 µM; in the experiment with NCI/ADR-RES ovarian it was greater than 25 µM; in the experiment on KM12 colon, greater than 25 µM. Moreover, the GI50 with OVCAR-3 ovarian was greater than 25 µM. Also, the TGI with HCT-15 colon, with MCF7 breast, in the experiment on T-47D breast, in the experiment with HS 578T breast, in the experiment on NCI/ADR-RES ovarian and with KM12 colon was greater than 25 µM each time. Also, in the experiment with OVCAR-3 ovarian, the TGI was greater than 25 µM.

These data come from PubChem BioAssay (NCI).
